{"source": "patent US20120022147A1", "about": "“2, 6 XYLIDINE DERIVATIVES FOR THE TREATMENT OF PAIN” (KRISANI BIOSCIENCES (P) LTD, priority 2011, published 2012)", "test_system": "spinal nerve ligation model for neuropathic pain in rats", "assay": "Von Frey test for mechanical allodynia in the spinal nerve ligation (Chung) model of neuropathic pain", "format": "in vivo, rat", "details": "for mean Von Frey force required for withdrawal of left operated leg, Baseline: baseline before surgery and treatment", "source_text": "Experimental animals were male SD rats with a starting weight of 230-250 grams. Total number of animals were n=90 for surgery and n=60 after selection. The animals were caged in groups of 3 in a temperature and humidity controlled area. They were maintained on a 12 hr light/dark cycle and had ad libitum access to food and water. Rodent models of neuropathic pain are used to investigate the underlying mechanisms of pain associated with damage to peripheral nerves and to evaluate the efficacy of novel. Tactile sensitivity was measured 7-21 days post-surgery using von Frey monofilaments before and following treatment with gabapentin and other compounds (La Buda et al. 2005).\nNeuropathic pain inducement was done by following principles of Chung induced model. The SD rats were anesthetized using ketamine/xylazine sodium. The rats were shaved and placed in prone position for surgery. The L5-L6 spinal nerves were surgically litigated. The rats were returned to their cages for recuperation and recovery under comfortable warm conditions using heat lamps.\nAfter seven days of surgery a pre selection was performed. Animals that indicate signs of post operative pain were to be selected to proceed. Pain is detected by observing when one or more of the criteria are met as follows. Licking of the operated paw, accompanied by gentle biting or pulling on the nails with the mouth; placing the leg in the air; bearing weight on the side contra-lateral to the nerve injury; deformities of the hind paw and abnormal posture and walking; weakness of the left hind paw. […] However, the animal must be able to move its leg to ensure that the L4 spinal nerve is intact. If the animal cannot move its leg, it was excluded from the study.\nSecond level of selection of the rats was done on day 14 after the surgery. Von Frey test was performed on the preselected rats after day 7 on day 14. Using Von Frey methodology, animals with a pain threshold of ≦26 g for the operated leg will be included in the study. After this selection step, the animals were randomly placed into their experimental groups.\nBlank, positive control and test compound: Blank was just the medium used for dissolving other compounds. The positive control was Gabapentin and the test compound was the final compound of formula 1 discussed in the instant disclosure. Three types of experimental groups were formed. Different types of chemicals such as Vehicle and Control were used to determine the efficacy of the chemicals as well comparison of the instant disclosed compound of formula 1, with a positive control was performed. The final compound of the instant disclosure was administered at 100 mg/kg and 150 mg/kg body weight as two different groups. The Gabapentin was administered at 150 mg/kg body weight.\nOn day 14 blank compound and final compound will be administered once daily starting on study day 14 through study day 21. Gabapentin, the positive control, will be administered 2 hours prior to pain testing on study days 14 and 21. The Von Frey test was be performed prior to final compound administration (pre-final compound injection) and after final compound administration at 0.5 hours, 2 hours and 4.5 hours post-final compound injection on study days 14 and 21. Additionally, if the Von Frey response for the operated leg of one of the six treatment groups is significant at 4.5 hours, all the groups will be tested again at 6.5 hours. In all instances, unless decided otherwise in the course of the study, all dosing solutions are applied as once a day intra peritoneal (IP) administration on each of the repeated dosing sessions. After the termination of the study the animals were euthanized.\nPain Response Evaluation: Pain response was evaluated using Von Frey test for mechanical allodynia. The Von Frey test for mechanical allodynia is based on applying short pulses of pressure that are not painful to a naïve animal. […]", "key": {"[1]": {"details": "150 mg/kg IP, study days 14 and 21"}, "[2]": {"details": "Table 9 (day 14), male SD rats, mean"}, "[3]": {"details": "Table 10 (day 21), male SD rats"}, "[4]": {"details": "study day 14, before first dose, male SD rats"}, "[5]": {"details": "study day 14, 150 mg/kg IP, male SD rats"}, "[6]": {"details": "study day 14, 150 mg/kg IP, male SD rats, 150 mg/kg"}, "[7]": {"details": "study day 14, 150 mg/kg IP, male SD rats, listed as gabapentin, 150 mg/kg"}, "[8]": {"details": "study day 21, before that day's dose, KRB-5b once daily from day 14, gabapentin on days 14 and 21, 150 mg/kg IP"}, "[9]": {"details": "study day 21, 150 mg/kg IP, male SD rats"}, "[10]": {"details": "study day 21, 150 mg/kg IP, male SD rats, 150 mg/kg"}}, "note": "Several values for one entry are separate records, joined by “and”; a condition that tells them apart may be missing. Identical values can stand only once. Marks after values point to notes of the source that are not given here."}
{"compound": "NCC1(CC(=O)O)CCCCC1", "note": "[Gabapentin, reference compound]", "values": [{"measurement": "analgesic effect on mechanical allodynia compared to Vehicle (in words)", "setting": "[1]", "result": "active only at 2 hours post dosing"}, {"measurement": "mean Von Frey force required for withdrawal of left operated leg, Baseline", "setting": "[2]", "result": 60.00, "unit": "g"}, {"measurement": "mean Von Frey force required for withdrawal of left operated leg, Baseline", "setting": "[3]", "result": 60, "unit": "g"}, {"measurement": "mean Von Frey force required for withdrawal of left operated leg, Pre-treatment", "setting": "[4]", "result": 9.69, "unit": "g"}, {"measurement": "mean Von Frey force required for withdrawal of left operated leg, 30 min Post treatment", "setting": "[5]", "result": 9.85, "unit": "g"}, {"measurement": "mean Von Frey force required for withdrawal of left operated leg, 6.5 hr Post treatment", "setting": "[5]", "result": 10.69, "unit": "g"}, {"measurement": "mean Von Frey force required for withdrawal of left operated leg, 2 hr Post treatment", "setting": "[6]", "result": "35.69* g"}, {"measurement": "mean Von Frey force required for withdrawal of left operated leg, 4.5 hr Post treatment", "setting": "[6]", "result": 10.69, "unit": "g"}, {"measurement": "mean Von Frey force required for withdrawal of left operated leg, 2 hr Post treatment", "setting": "[7]", "result": "35.69 ± 5.69", "unit": "g"}, {"measurement": "mean Von Frey force required for withdrawal of left operated leg, 4.5 hr Post treatment", "setting": "[7]", "result": "10.69 ± 1.42", "unit": "g"}, {"measurement": "mean Von Frey force required for withdrawal of left operated leg, Pre-treatment", "setting": "[8]", "result": 7.92, "unit": "g"}, {"measurement": "mean Von Frey force required for withdrawal of left operated leg, 30 min Post treatment", "setting": "[9]", "result": 9.85, "unit": "g"}, {"measurement": "mean Von Frey force required for withdrawal of left operated leg, 6.5 hr Post treatment", "setting": "[9]", "result": 9.62, "unit": "g"}, {"measurement": "mean Von Frey force required for withdrawal of left operated leg, 2 hr Post treatment", "setting": "[10]", "result": "48.69±4.96 g and 48.69* g"}, {"measurement": "mean Von Frey force required for withdrawal of left operated leg, 4.5 hr Post treatment", "setting": "[10]", "result": 10.62, "unit": "g"}, {"measurement": "mean Von Frey force required for withdrawal of left operated leg, 4.5 hr Post treatment", "setting": "study day 21, 150 mg/kg IP, male SD rats, listed as gabapentin, 150 mg/kg", "result": "10.62 ± 0.90", "unit": "g"}]}
{"compound": "CCN(CCOC(=O)CCCCC1CCSS1)CC(=O)Nc1c(C)cccc1C", "note": "(stereo not shown) [KRB-5b]", "values": [{"measurement": "analgesic activity compared to gabapentin (in words)", "setting": "[1]", "result": "prolonged analgesic activity compared to gabapentin"}, {"measurement": "analgesic effect on mechanical allodynia compared to Vehicle (in words)", "setting": "[1]", "result": "effective as a pain analgesic item"}, {"measurement": "analgesic effect on mechanical allodynia compared to Vehicle (in words)", "setting": "150 mg/kg IP, study days 14 and 21, listed as formula 1", "result": "effective in treating the spinal nerve ligation model for neuropathic pain in rats"}, {"measurement": "mean Von Frey force required for withdrawal of left operated leg, Baseline", "setting": "[2]", "result": 60.00, "unit": "g"}, {"measurement": "mean Von Frey force required for withdrawal of left operated leg, Baseline", "setting": "[3]", "result": 60, "unit": "g"}, {"measurement": "mean Von Frey force required for withdrawal of left operated leg, Pre-treatment", "setting": "[4]", "result": 11.00, "unit": "g"}, {"measurement": "mean Von Frey force required for withdrawal of left operated leg, 30 min Post treatment", "setting": "[5]", "result": 19.60, "unit": "g"}, {"measurement": "mean Von Frey force required for withdrawal of left operated leg, 6.5 hr Post treatment", "setting": "[5]", "result": 16.40, "unit": "g"}, {"measurement": "mean Von Frey force required for withdrawal of left operated leg, 2 hr Post treatment", "setting": "[6]", "result": "39.00±7.19 g and 39.00* g"}, {"measurement": "mean Von Frey force required for withdrawal of left operated leg, 4.5 hr Post treatment", "setting": "[6]", "result": "44.20±6.55 g and 44.20*# g"}, {"measurement": "mean Von Frey force required for withdrawal of left operated leg, Pre-treatment", "setting": "[8]", "result": 15.40, "unit": "g"}, {"measurement": "mean Von Frey force required for withdrawal of left operated leg, 30 min Post treatment", "setting": "[9]", "result": 17.50, "unit": "g"}, {"measurement": "mean Von Frey force required for withdrawal of left operated leg, 2 hr Post treatment", "setting": "[9]", "result": "21.30# g"}, {"measurement": "mean Von Frey force required for withdrawal of left operated leg, 6.5 hr Post treatment", "setting": "[9]", "result": 10.80, "unit": "g"}, {"measurement": "mean Von Frey force required for withdrawal of left operated leg, 4.5 hr Post treatment", "setting": "[10]", "result": "26.20±5.81 g and 26.20*# g"}]}
